Data reported in ChEMBL document CHEMBL1147729, “(+)-(2R,5S)-4-[4-cyano-3-(trifluoromethyl)phenyl]-2,5-dimethyl-N-[6-(trifluoromethyl)pyridin-3-yl]piperazine-1-carboxamide (YM580) as an orally potent and peripherally selective nonsteroidal androgen receptor antagonist” (J Med Chem, 2006).

How the values were obtained:
[1] = Cmax in rat plasma at 3 mg/kg, po; format: ADME, organism-based; set-up: dose 3 mg/kg, route oral
[2] = Oral clearance in rat at 3 mg/kg, po; format: ADME, organism-based; set-up: dose 3 mg/kg, route oral; conditions: in vivo
Rattus norvegicus [3] = assay: Effect on ventral prostate weight with reference to control in Wistar rat at 10 mg/kg/day, po; format: functional, Prostate gland; conditions: Rattus norvegicus, Wistar, Prostate gland
[4] = Oral clearance in rat ventral prostate at 3 mg/kg, po; format: ADME, organism-based, Prostate gland; set-up: dose 3 mg/kg, route oral
Glucocorticoid receptor = target: T1, Glucocorticoid receptor (Homo sapiens, UniProt P04150); assay: Inhibition of human GR
T1 sequence (P04150 whole entry): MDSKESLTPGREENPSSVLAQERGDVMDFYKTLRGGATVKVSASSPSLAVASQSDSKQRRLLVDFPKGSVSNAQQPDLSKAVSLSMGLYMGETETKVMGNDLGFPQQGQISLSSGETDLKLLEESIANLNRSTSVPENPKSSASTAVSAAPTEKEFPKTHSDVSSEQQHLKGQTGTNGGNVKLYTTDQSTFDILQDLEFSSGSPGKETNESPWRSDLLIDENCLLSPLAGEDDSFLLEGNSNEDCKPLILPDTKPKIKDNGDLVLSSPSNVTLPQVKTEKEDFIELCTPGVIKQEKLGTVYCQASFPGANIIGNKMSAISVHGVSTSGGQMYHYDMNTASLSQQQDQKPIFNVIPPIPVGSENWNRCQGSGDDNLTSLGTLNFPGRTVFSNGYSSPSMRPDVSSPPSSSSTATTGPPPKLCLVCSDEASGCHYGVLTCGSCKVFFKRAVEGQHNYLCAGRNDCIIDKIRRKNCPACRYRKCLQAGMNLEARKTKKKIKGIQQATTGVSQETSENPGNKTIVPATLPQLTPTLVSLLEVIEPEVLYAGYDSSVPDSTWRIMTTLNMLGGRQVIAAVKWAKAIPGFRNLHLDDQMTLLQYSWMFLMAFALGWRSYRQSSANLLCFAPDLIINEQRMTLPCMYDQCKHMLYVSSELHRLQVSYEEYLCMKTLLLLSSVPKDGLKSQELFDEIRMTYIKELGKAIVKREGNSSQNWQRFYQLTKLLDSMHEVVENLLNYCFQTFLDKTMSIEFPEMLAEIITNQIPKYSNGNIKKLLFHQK

[5] = Half life in rat plasma at 3 mg/kg, po; format: ADME, organism-based; set-up: dose 3 mg/kg, route oral
Rattus norvegicus [6] = assay: Effect on ventral prostate weight with reference to control in Wistar rat at 30 mg/kg/day, po; format: functional; conditions: Prostate gland
Progesterone receptor = target: T2, Progesterone receptor (Rattus norvegicus, UniProt Q63449); assay: Inhibition of rat PR
T2 sequence (Q63449 whole entry): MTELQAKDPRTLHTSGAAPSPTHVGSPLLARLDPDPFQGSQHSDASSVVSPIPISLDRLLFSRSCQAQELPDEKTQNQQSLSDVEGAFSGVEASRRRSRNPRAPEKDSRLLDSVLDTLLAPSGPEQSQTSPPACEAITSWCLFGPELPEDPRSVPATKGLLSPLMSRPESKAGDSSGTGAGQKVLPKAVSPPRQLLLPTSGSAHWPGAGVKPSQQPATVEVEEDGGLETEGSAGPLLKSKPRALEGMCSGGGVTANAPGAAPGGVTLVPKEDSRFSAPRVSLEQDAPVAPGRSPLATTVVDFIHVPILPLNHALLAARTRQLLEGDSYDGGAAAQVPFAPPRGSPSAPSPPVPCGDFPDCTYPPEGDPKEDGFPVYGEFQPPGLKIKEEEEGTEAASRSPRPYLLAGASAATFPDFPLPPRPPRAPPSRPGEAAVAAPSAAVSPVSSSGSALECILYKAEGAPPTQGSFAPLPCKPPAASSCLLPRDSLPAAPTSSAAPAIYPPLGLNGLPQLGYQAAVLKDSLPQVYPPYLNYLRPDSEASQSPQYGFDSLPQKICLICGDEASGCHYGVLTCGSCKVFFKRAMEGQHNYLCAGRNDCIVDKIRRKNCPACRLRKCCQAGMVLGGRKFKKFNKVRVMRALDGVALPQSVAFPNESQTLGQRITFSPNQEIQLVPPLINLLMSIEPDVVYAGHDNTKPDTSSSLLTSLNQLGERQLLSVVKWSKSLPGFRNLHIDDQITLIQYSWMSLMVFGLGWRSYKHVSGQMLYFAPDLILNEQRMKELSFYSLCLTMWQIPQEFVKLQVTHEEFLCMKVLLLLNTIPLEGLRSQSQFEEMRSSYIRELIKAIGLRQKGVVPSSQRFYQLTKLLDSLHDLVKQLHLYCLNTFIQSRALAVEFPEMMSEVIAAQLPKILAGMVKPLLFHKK

[7] = Cmax in rat hypothalamus at 3 mg/kg, po; format: ADME, organism-based; set-up: dose 3 mg/kg, route oral
[8] = AUC (0-72)hrs in rat ventral prostate at 3 mg/kg, po; format: ADME, organism-based, Prostate gland; set-up: time < 72 hr, dose 3 mg/kg, route oral
Estrogen receptor = target: T3, Estrogen receptor (Homo sapiens, UniProt P03372); assay: Inhibition of human ERalpha
T3 sequence (P03372 whole entry): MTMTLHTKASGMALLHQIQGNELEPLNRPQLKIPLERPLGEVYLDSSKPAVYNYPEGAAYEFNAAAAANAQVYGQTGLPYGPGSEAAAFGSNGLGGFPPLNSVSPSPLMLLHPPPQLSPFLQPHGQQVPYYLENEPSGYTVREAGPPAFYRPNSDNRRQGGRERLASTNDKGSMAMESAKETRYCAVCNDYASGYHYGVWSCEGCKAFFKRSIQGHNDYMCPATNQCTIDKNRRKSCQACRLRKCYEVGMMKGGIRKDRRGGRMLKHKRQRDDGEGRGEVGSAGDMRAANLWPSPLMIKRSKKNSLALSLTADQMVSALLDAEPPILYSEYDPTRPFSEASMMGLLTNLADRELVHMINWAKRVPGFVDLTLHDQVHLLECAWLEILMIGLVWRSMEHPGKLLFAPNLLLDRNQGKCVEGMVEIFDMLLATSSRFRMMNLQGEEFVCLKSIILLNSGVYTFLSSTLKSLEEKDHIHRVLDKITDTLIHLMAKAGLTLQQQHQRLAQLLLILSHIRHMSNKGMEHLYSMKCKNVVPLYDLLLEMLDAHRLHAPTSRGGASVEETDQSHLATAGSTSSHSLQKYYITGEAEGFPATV

[9] = Cmax in rat ventral prostate at 3 mg/kg, po; format: ADME, organism-based, Prostate gland; set-up: dose 3 mg/kg, route oral
[10] = Half life in rat ventral prostate at 3 mg/kg, po; format: ADME, organism-based, Prostate gland; set-up: dose 3 mg/kg, route oral
[11] = AUC (0-72)hrs in rat plasma at 3 mg/kg, po; format: ADME, organism-based; set-up: time < 72 hr, dose 3 mg/kg, route oral
[12] = AUC (0-72)hrs in rat hypothalamus at 3 mg/kg, po; format: ADME, organism-based; set-up: time < 72 hr, dose 3 mg/kg, route oral

SMILES: C[C@@H]1CN(c2ccc(C#N)c(C(F)(F)F)c2)[C@@H](C)CN1C(=O)Nc1ccc(C(F)(F)F)nc1 (racemic)
- Cmax [1]: 702 ng/mL
- CL/F [2]: 2.22 mL/min/kg
- inhibition in vivo at 10 mg/kg/day (Rattus norvegicus [3]): 67%
- CL/F [4]: 1.14 mL/min/kg
- Ki (Glucocorticoid receptor): > 100 µM
- half-life [5]: 12.5 h
- ED50 (Rattus norvegicus [6]): 2.2 mg/kg
- Ki (Progesterone receptor): 3.3 µM
- Cmax [7]: 96 ng/mL
- AUC at 72 h [8]: 43200 ng·h/mL
- Ki (Estrogen receptor): > 100 µM
- Cmax [9]: 1560 ng/mL
- half-life [10]: 11.2 h
- AUC at 72 h [11]: 22000 ng·h/mL
- AUC at 72 h [12]: 2580 ng·h/mL
